From PMC7377239, “Cardiovascular Effects of Polychlorinated Biphenyls and Their Major Metabolites” (Environmental Health Perspectives, 2020)
Like-named read-outs stand apart in the source and are kept apart here.

Test system: HUVECs
Assay: Tube formation (tubulogenesis) assay in HUVECs, 18 h
Type: cell-based, human
Settings: Homo sapiens, HUVEC, 18 h
Procedure, shortened: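 HUVECs (passage 1–5) seeded on reduced-growth-factor basement membrane and exposed to compounds overnight at 37°C, 5% CO2, in 2× maintenance medium with 12.5 ng/mL VEGF; 0.5% DMSO vehicle. Calcein AM-stained tube networks imaged and analysed; vehicle-normalized readouts fit to four-parameter logistic, POD set at one SD of vehicle means.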

[1] = HUVECs, 0.01 µM, 0.00 µM = 100.00, read-out: huvec.mtl.18hr
[2] = HUVECs, 0.01 µM, 0.00 µM = 100.00, read-out: huvec.tlps.18hr
[3] = HUVECs, 0.01 µM, 0.00 µM = 100.00, read-out: huvec.tta.18hr
[4] = HUVECs, 0.01 µM, 0.00 µM = 100.00, read-out: huvec.ttl.18hr
[5] = HUVECs, 0.10 µM, 0.00 µM = 100.00, read-out: huvec.mtl.18hr
[6] = HUVECs, 0.10 µM, 0.00 µM = 100.00, read-out: huvec.tlps.18hr
[7] = HUVECs, 0.10 µM, 0.00 µM = 100.00, read-out: huvec.tta.18hr
[8] = HUVECs, 0.10 µM, 0.00 µM = 100.00, read-out: huvec.ttl.18hr
[9] = HUVECs, 1.00 µM, 0.00 µM = 100.00, read-out: huvec.mtl.18hr
[10] = HUVECs, 1.00 µM, 0.00 µM = 100.00, read-out: huvec.tlps.18hr
[11] = HUVECs, 1.00 µM, 0.00 µM = 100.00, read-out: huvec.tta.18hr
[12] = HUVECs, 1.00 µM, 0.00 µM = 100.00, read-out: huvec.ttl.18hr
[13] = HUVECs, 10.00 µM, 0.00 µM = 100.00, read-out: huvec.mtl.18hr
[14] = HUVECs, 10.00 µM, 0.00 µM = 100.00, read-out: huvec.tlps.18hr
[15] = HUVECs, 10.00 µM, 0.00 µM = 100.00, read-out: huvec.tta.18hr
[16] = HUVECs, 10.00 µM, 0.00 µM = 100.00, read-out: huvec.ttl.18hr
[17] = HUVECs, 100.00 µM, 0.00 µM = 100.00, read-out: huvec.mtl.18hr
[18] = HUVECs, 100.00 µM, 0.00 µM = 100.00, read-out: huvec.tlps.18hr
[19] = HUVECs, 100.00 µM, 0.00 µM = 100.00, read-out: huvec.tta.18hr
[20] = HUVECs, 100.00 µM, 0.00 µM = 100.00, read-out: huvec.ttl.18hr
[21] = HUVECs, top concentration 100.00 µM, read-out: huvec.mtl.18hr POD
[22] = HUVECs, top concentration 100.00 µM, read-out: huvec.tlps.18hr POD
[23] = HUVECs, top concentration 100.00 µM, read-out: huvec.tta.18hr POD
[24] = HUVECs, top concentration 100.00 µM, read-out: huvec.ttl.18hr POD
[25] = HUVECs tube formation, MAX 100.00, read-out: huvec.mtl.18hr POD
[26] = HUVECs tube formation, MAX 100.00, read-out: huvec.tlps.18hr POD
[27] = HUVECs tube formation, MAX 100.00, read-out: huvec.tta.18hr POD
[28] = HUVECs tube formation, MAX 100.00, read-out: huvec.ttl.18hr POD
[29] = HUVECs tube formation, concentration 0.01 µM, 0.00 µM = 100.00, read-out: huvec.mtl.18hr
[30] = HUVECs tube formation, concentration 0.01 µM, 0.00 µM = 100.00, read-out: huvec.tlps.18hr
[31] = HUVECs tube formation, concentration 0.01 µM, 0.00 µM = 100.00, read-out: huvec.tta.18hr
[32] = HUVECs tube formation, concentration 0.01 µM, 0.00 µM = 100.00, read-out: huvec.ttl.18hr
[33] = HUVECs tube formation, concentration 0.10 µM, 0.00 µM = 100.00, read-out: huvec.mtl.18hr
[34] = HUVECs tube formation, concentration 0.10 µM, 0.00 µM = 100.00, read-out: huvec.tlps.18hr
[35] = HUVECs tube formation, concentration 0.10 µM, 0.00 µM = 100.00, read-out: huvec.tta.18hr
[36] = HUVECs tube formation, concentration 0.10 µM, 0.00 µM = 100.00, read-out: huvec.ttl.18hr
[37] = HUVECs tube formation, concentration 1.00 µM, 0.00 µM = 100.00, read-out: huvec.mtl.18hr
[38] = HUVECs tube formation, concentration 1.00 µM, 0.00 µM = 100.00, read-out: huvec.tlps.18hr
[39] = HUVECs tube formation, concentration 1.00 µM, 0.00 µM = 100.00, read-out: huvec.tta.18hr
[40] = HUVECs tube formation, concentration 1.00 µM, 0.00 µM = 100.00, read-out: huvec.ttl.18hr
[41] = HUVECs tube formation, concentration 10.00 µM, 0.00 µM = 100.00, read-out: huvec.mtl.18hr
[42] = HUVECs tube formation, concentration 10.00 µM, 0.00 µM = 100.00, read-out: huvec.tlps.18hr
[43] = HUVECs tube formation, concentration 10.00 µM, 0.00 µM = 100.00, read-out: huvec.tta.18hr
[44] = HUVECs tube formation, concentration 10.00 µM, 0.00 µM = 100.00, read-out: huvec.ttl.18hr
[45] = HUVECs tube formation, concentration 100.00 µM, 0.00 µM = 100.00, read-out: huvec.mtl.18hr
[46] = HUVECs tube formation, concentration 100.00 µM, 0.00 µM = 100.00, read-out: huvec.tlps.18hr
[47] = HUVECs tube formation, concentration 100.00 µM, 0.00 µM = 100.00, read-out: huvec.tta.18hr
[48] = HUVECs tube formation, concentration 100.00 µM, 0.00 µM = 100.00, read-out: huvec.ttl.18hr

Clc1ccc(-c2ccccc2)cc1 [PCB3]
activity at 0.01 µM [1]: 96.2%
activity at 0.01 µM [2]: 59.5%
activity at 0.01 µM [3]: 68%
activity at 0.01 µM [4]: 71.6%
activity at 0.1 µM [5]: 97.7%
activity at 0.1 µM [6]: 91.8%
activity at 0.1 µM [7]: 96.2%
activity at 0.1 µM [8]: 104%
activity at 1 µM [9]: 87%
activity at 1 µM [10]: 74.7%
activity at 1 µM [11]: 76.6%
activity at 1 µM [12]: 81.5%
activity at 10 µM [13]: 96.7%
activity at 10 µM [14]: 74.2%
activity at 10 µM [15]: 62%
activity at 10 µM [16]: 66.4%
activity at 100 µM [17]: 70.8%
activity at 100 µM [18]: 39.1%
activity at 100 µM [19]: 26%
activity at 100 µM [20]: 28%
minimal effective concentration [21]: 25.3 µM
minimal effective concentration [22]: 100 µM
minimal effective concentration [23]: 0.67 µM
minimal effective concentration [24]: 0.7 µM

Clc1cccc(-c2cccc(Cl)c2)c1 [PCB11]
activity at 0.01 µM [1]: 107%
activity at 0.01 µM [2]: 122%
activity at 0.01 µM [3]: 138%
activity at 0.01 µM [4]: 122%
activity at 0.1 µM [5]: 113%
activity at 0.1 µM [6]: 126%
activity at 0.1 µM [7]: 133%
activity at 0.1 µM [8]: 124%
activity at 1 µM [9]: 109%
activity at 1 µM [10]: 130%
activity at 1 µM [11]: 157%
activity at 1 µM [12]: 140%
activity at 10 µM [13]: 97.8%
activity at 10 µM [14]: 94.6%
activity at 10 µM [15]: 86.1%
activity at 10 µM [16]: 87.2%
activity at 100 µM [17]: 81.4%
activity at 100 µM [18]: 77.5%
activity at 100 µM [19]: 85%
activity at 100 µM [20]: 78.8%
minimal effective concentration [21]: 100 µM
minimal effective concentration [22]: 41.8 µM
minimal effective concentration [23]: 100 µM
minimal effective concentration [24]: 100 µM

Clc1ccc(Cl)c(-c2cc(Cl)ccc2Cl)c1 [PCB52]
activity at 0.01 µM [1]: 105%
activity at 0.01 µM [2]: 114%
activity at 0.01 µM [3]: 103%
activity at 0.01 µM [4]: 94.1%
activity at 0.1 µM [5]: 111%
activity at 0.1 µM [6]: 126%
activity at 0.1 µM [7]: 105%
activity at 0.1 µM [8]: 94.2%
activity at 1 µM [9]: 108%
activity at 1 µM [10]: 121%
activity at 1 µM [11]: 86.8%
activity at 1 µM [12]: 81.6%
activity at 10 µM [13]: 100%
activity at 10 µM [14]: 95%
activity at 10 µM [15]: 99.7%
activity at 10 µM [16]: 94.2%
activity at 100 µM [17]: 97.2%
activity at 100 µM [18]: 114%
activity at 100 µM [19]: 94.8%
activity at 100 µM [20]: 83.5%
minimal effective concentration [21]: 100 µM
minimal effective concentration [22]: 100 µM
minimal effective concentration [23]: 100 µM
minimal effective concentration [24]: 100 µM

Clc1ccc(Cl)c(-c2c(Cl)ccc(Cl)c2Cl)c1 [PCB95]
minimal effective concentration [25]: 8.29 µM
minimal effective concentration [26]: 100 µM
minimal effective concentration [27]: 100 µM
minimal effective concentration [28]: 100 µM
activity at 0.01 µM [29]: 96.9%
activity at 0.01 µM [30]: 80.5%
activity at 0.01 µM [31]: 75.1%
activity at 0.01 µM [32]: 63%
activity at 0.1 µM [33]: 82.7%
activity at 0.1 µM [34]: 88.7%
activity at 0.1 µM [35]: 71.1%
activity at 0.1 µM [36]: 63.9%
activity at 1 µM [37]: 104%
activity at 1 µM [38]: 86.3%
activity at 1 µM [39]: 78.7%
activity at 1 µM [40]: 68.7%
activity at 10 µM [41]: 87.4%
activity at 10 µM [42]: 88.9%
activity at 10 µM [43]: 84%
activity at 10 µM [44]: 79.8%
activity at 100 µM [45]: 72.8%
activity at 100 µM [46]: 64.1%
activity at 100 µM [47]: 68.8%
activity at 100 µM [48]: 61.4%

Clc1ccc(-c2cc(Cl)c(Cl)c(Cl)c2)cc1Cl [PCB126]
minimal effective concentration [25]: 100 µM
minimal effective concentration [26]: 100 µM
minimal effective concentration [27]: 100 µM
minimal effective concentration [28]: 100 µM
activity at 0.01 µM [29]: 93.6%
activity at 0.01 µM [30]: 51.1%
activity at 0.01 µM [31]: 51.1%
activity at 0.01 µM [32]: 53.8%
activity at 0.1 µM [33]: 98.7%
activity at 0.1 µM [34]: 67.7%
activity at 0.1 µM [35]: 80.9%
activity at 0.1 µM [36]: 84.3%
activity at 1 µM [37]: 87.8%
activity at 1 µM [38]: 61.4%
activity at 1 µM [39]: 77.3%
activity at 1 µM [40]: 83.6%
activity at 10 µM [41]: 89.6%
activity at 10 µM [42]: 52.3%
activity at 10 µM [43]: 94.3%
activity at 10 µM [44]: 100%
activity at 100 µM [45]: 83.2%
activity at 100 µM [46]: 59.4%
activity at 100 µM [47]: 92.7%
activity at 100 µM [48]: 88.9%

Clc1cc(Cl)c(-c2cc(Cl)c(Cl)cc2Cl)cc1Cl [PCB153]
minimal effective concentration [25]: 19.8 µM
minimal effective concentration [26]: 61.8 µM
minimal effective concentration [27]: 8.87 µM
minimal effective concentration [28]: 0.13 µM
activity at 0.01 µM [29]: 88.3%
activity at 0.01 µM [30]: 103%
activity at 0.01 µM [31]: 72.1%
activity at 0.01 µM [32]: 66.9%
activity at 0.1 µM [33]: 95.5%
activity at 0.1 µM [34]: 80.3%
activity at 0.1 µM [35]: 103%
activity at 0.1 µM [36]: 95.6%
activity at 1 µM [37]: 88.7%
activity at 1 µM [38]: 89.4%
activity at 1 µM [39]: 73.7%
activity at 1 µM [40]: 66.3%
activity at 10 µM [41]: 95.2%
activity at 10 µM [42]: 107%
activity at 10 µM [43]: 115%
activity at 10 µM [44]: 106%
activity at 100 µM [45]: 65.2%
activity at 100 µM [46]: 61%
activity at 100 µM [47]: 54.1%
activity at 100 µM [48]: 48%
